{"source": "patent US10016517B2", "about": "“Bioactive amphiphilic polymer stabilized nanoparticles with enhanced stability and activity” (RUTGERS, THE STATE UNIVERSITY OF NEW JERSEY, priority 2011, dated 2018)", "tested_on": "human MDMs", "test": "DiO oxLDL uptake by PBMC derived macrophages", "type": "cell-based", "conditions": "MDMs co-incubated with PEG-b-PLA NPs loaded with M12 and DiO oxLDL", "method": "Peripheral blood mononuclear cells (PBMC) were isolated from human buffy coats (Blood Center of New Jersey; East Orange, N.J.) by Ficoll-Paque (1.077 g mL^−1; GE Healthcare) density gradient. Monocytes were selected by plate adherence after two hours by washing thrice with PBS and cultured for 7 days in RPMI 1640 (ATCC) with 10% FBS, 1% Penicillin/Streptomycin and 50 ng mL^−1 M-CSF for differentiation into macrophages (MDM). Media was exchanged every two to three days. Primary Human Coronary Artery Smooth Muscle Cells (CASMC) (Lonza) between passages 3-6 were cultured in SM-GM2 media (Lonza). CASMC were plated on Type I Collagen coated wells for cytotoxicity experiments. […]\nHuman MDMs were co-incubated with 5 μg mL^−1 of 3,3′-dioctadecyloxacarbocyanine (DiO) labeled oxLDL (Kalen Biomedical; Montgomery Village, Md.) and either NPs or micelles for 24 h in the presence of 0 (serum-free), 5, 10 or 20% FBS. […] Cells were fixed and counterstained with Hoechst 33342 before epifluorescent imaging on a Nikon Eclipse TE2000-S. Uptake of oxLDL in MDMs was quantified by ImageJ and normalized to cell count. Analyzed data were from three independent experiments performed in triplicate.\nInhibition of oxLDL uptake in human MDMs by AM NPs and analogous micellar systems were determined (FIG. 3B-C). […] Uptake of oxLDL in MDMs was determined by ImageJ analysis of epifluorescent images. […]"}
{"substance": "mucic acid modified with lauroyl groups [M12]", "values": [{"measurement": "therapeutic efficacy towards inhibiting oxLDL uptake", "value": "no therapeutic efficacy"}]}
